Test results published in PMC11237694, “Novel pentafluorosulfanyl-containing triclocarban analogs selectively kill Gram-positive bacteria” (Microbiology Spectrum, 2024).
Converted amounts (≈) assume the structure as drawn.

Experiments:
Assay in all cases: Planktonic susceptibility (MIC/MBC), 96-well broth microdilution
[1] = system: Klebsiella pneumoniae ATCC; assay type: cell-based; conditions: K. pneumonia; for MIC: planktonic, overnight 37°C in MHB
Procedure: (§1) All bacterial strains subjected to testing had been stored at −70°C prior to the experiment. The experiment commenced by streaking small amounts of the frozen bacterial samples onto Muller-Hinton agar (MHA) culture medium (BD Bacto, Oxoid, Basingstoke, UK Cat# X296B) and allowing for overnight incubation. Bacteria were re-cultured on MHA plates as required to confirm colony morphology and lack of contamination. Strains tested were P. aeruginosa ATCC 27853, E. coli ATCC 25922, Staphylococcus aureus ATCC 25923, MRSA ATCC 33591, S. epidermidis ATCC 12228, Klebsiella pneumoniae ATCC, P. mirabilis ATCC 35659, and 10 clinical isolates of MRSA from Foothills Hospital, Calgary, Canada. To prepare for susceptibility testing, a protocol modified from Lemire et al was used ([28]). MHB was swab-inoculated from MHA colonies and shake-incubated until turbid. Dilution of the broth with 0.9% saline was performed as necessary to match a 1.0 McFarland standard.
(§2) MIC and MBC assessments were conducted on all bacterial strains using 96-well microtiter plates. To prepare the wells for bacteria, serial dilutions of the antibacterial agents were carried out along the rows of two microtiter plates. The antibacterials were 2-fold diluted with Mueller-Hinton broth (MHB) in each column, reaching a volume of 75 µL. The 1.0 McFarland standard was diluted 15-fold in MHB, and 75 µL of inoculum was added to the wells treated with antibacterials, resulting in a total volume of 150 µL. The microtiter plates were covered and then shake-incubated overnight at 150 rpm and 37°C. MIC was determined based on visible bacterial growth. In cases of antibacterial opacity or ambiguous results, streaking of well cultures on MHA, overnight incubation, and subsequent comparison with controls were performed. MBC was determined by transferring 3 µL of culture from all MIC microtiter plate wells to 147 µL of Mueller-Hinton broth in fresh plates. These plates were shake-incubated overnight at 150 rpm and 37°C, and bacterial growth was visually inspected.

P. mirabilis ATCC 35659 = assay type: cell-based; conditions: Proteus mirabilis; for MBC: ATCC35659; for MIC: ATCC35659, planktonic, overnight 37°C in MHB
Procedure: as §1, §2

[2] = system: Staphylococcus aureus ATCC 25923; assay type: cell-based; conditions: Staphylococcus aureus, ATCC25923, S. aureus; for MIC: planktonic, overnight 37°C in MHB
Procedure: as §1, §2

MRSA ATCC 33591 = assay type: cell-based, methicillin-resistant S. aureus; conditions: Staphylococcus aureus, MRSA reference strain; for MIC: planktonic, overnight 37°C in MHB
Procedure: as §1
as §2, with “In cases of antibacterial opacity or ambiguous results, streaking of well cultures on MHA, overnight incubation, and subsequent comparison with controls were performed.” left out

Row | Structure (SMILES) | MBC [1] [mM] | MIC [1] [mM] | MBC (P. mirabilis ATCC 35659) [mM] | MIC (P. mirabilis ATCC 35659) [mM] | MBC [2] [mM] | MIC [2] [mM] | MBC (MRSA ATCC 33591) [mM] | MIC (MRSA ATCC 33591) [mM]
1 | O=C(Nc1ccc(Cl)cc1)Nc1ccc(Cl)c(S(F)(F)(F)(F)F)c1 [EBP-41, 1-(4-chloro-3-(pentafluoro-λ^6-sulfanyl)phenyl)-3-(4-chlorophenyl)urea] | > 5 | > 5 | > 5 | > 5 | 1.2 (≈ 489 µg/mL) | 0.038 (≈ 15.5 µg/mL) | 1.2 (≈ 489 µg/mL) | 0.0095 (≈ 3.87 µg/mL)
2 | O=C(Nc1cccc(S(F)(F)(F)(F)F)c1)Nc1cccc(S(F)(F)(F)(F)F)c1 [EBP-53, 1,3-bis(3-(Pentafluoro-λ^6-sulfanyl)phenyl) urea] | > 5 | > 5 | > 5 | > 5 |  | 1.2 (≈ 557 µg/mL) |  | 1.2 (≈ 557 µg/mL)
3 | O=C(Nc1ccc(S(F)(F)(F)(F)F)cc1)Nc1cccc(S(F)(F)(F)(F)F)c1 [EBP-55, 1-(3-(pentafluoro-λ^6-sulfanyl)phenyl)-3-(4-(pentafluoro-λ^6-sulfanyl)phenyl)urea] | > 5 | > 5 | > 5 | > 5 | 78 (≈ 36200 µg/mL) | 0.019 (≈ 8.82 µg/mL) | 0.15 (≈ 69.7 µg/mL) | 0.0048 (≈ 2.23 µg/mL)
4 | O=C(Nc1ccc(Cl)c(S(F)(F)(F)(F)F)c1)Nc1ccc(Cl)c(S(F)(F)(F)(F)F)c1 [EBP-56, 1,3-bis(4-Chloro-3-(pentafluoro-λ^6-sulfanyl)phenyl) urea] | > 5 | > 5 | > 5 | > 5 | 78 (≈ 41600 µg/mL) | 4.9 (≈ 2610 µg/mL) | 0.61 (≈ 325 µg/mL) | 0.3 (≈ 160 µg/mL)
5 | O=C(Nc1ccc(Cl)cc1)Nc1cccc(S(F)(F)(F)(F)F)c1Cl [EBP-58, 1-(2-Chloro-3-(pentafluoro-λ^6-sulfanyl)phenyl)-3-(4-chlorophenyl)urea] | > 5 | > 5 | > 5 | > 5 |  |  |  | 20 (≈ 8140 µg/mL)
6 | O=C(Nc1ccc(S(F)(F)(F)(F)F)cc1)Nc1ccc2nnsc2c1 [EPB-21, 3-(1,2,3-benzothiadiazol-6-yl)-1-(4-pentafluoro-λ^6-sulfanyl)urea] | > 5 | > 5 | > 5 | > 5 |  |  |  | 
7 | O=C(Nc1cccc(S(F)(F)(F)(F)F)c1)Nc1ccc2nnsc2c1 [EPB-22, 3-(1,2,3-benzothiadiazol-6-yl)-1-(3-pentafluoro-λ^6-sulfanyl)urea] | > 5 | > 5 | > 5 | > 5 | 20 (≈ 7930 µg/mL) | 0.61 (≈ 242 µg/mL) | 4.9 (≈ 1940 µg/mL) | 0.61 (≈ 242 µg/mL)
8 | O=C(Nc1ccc2nnsc2c1)Nc1cc(S(F)(F)(F)(F)F)ccc1Cl [EPB-23, 3-(1,2,3-benzothiadiazol-6-yl)-1-(2-chloro-5-pentafluoro-λ^6-sulfanyl)urea] | > 5 | > 5 | > 5 | > 5 | 20 (≈ 8620 µg/mL) | 2.4 (≈ 1030 µg/mL) | 39 (≈ 16800 µg/mL) | 4.9 (≈ 2110 µg/mL)
